In paper PMC9378504 (Journal of medicinal chemistry, 2022):

What was measured:
KMS11 cells = assay: Cell growth inhibition assay in KMS11 cells; format: cell-based, Human; conditions: 2.5 μM, 8 days
IKZF1 [1] = target: T1, IKZF1 (Homo sapiens, UniProt Q13422+Q96SW2); assay: Western blotting of IKZF1 protein level in H929 cells; format: cell-based; conditions: 2.5 μM, 72 h
NSD2 [2] = target: T2, NSD2 (Homo sapiens, UniProt O96028); assay: Western blotting of NSD2 protein level in CRBN KO 293FT cells; format: cell-based; conditions: 293FT cells with CRISPR-Cas9-mediated KO of CRBN, range of concentrations, 48 h
T2 sequence (O96028 1-1365): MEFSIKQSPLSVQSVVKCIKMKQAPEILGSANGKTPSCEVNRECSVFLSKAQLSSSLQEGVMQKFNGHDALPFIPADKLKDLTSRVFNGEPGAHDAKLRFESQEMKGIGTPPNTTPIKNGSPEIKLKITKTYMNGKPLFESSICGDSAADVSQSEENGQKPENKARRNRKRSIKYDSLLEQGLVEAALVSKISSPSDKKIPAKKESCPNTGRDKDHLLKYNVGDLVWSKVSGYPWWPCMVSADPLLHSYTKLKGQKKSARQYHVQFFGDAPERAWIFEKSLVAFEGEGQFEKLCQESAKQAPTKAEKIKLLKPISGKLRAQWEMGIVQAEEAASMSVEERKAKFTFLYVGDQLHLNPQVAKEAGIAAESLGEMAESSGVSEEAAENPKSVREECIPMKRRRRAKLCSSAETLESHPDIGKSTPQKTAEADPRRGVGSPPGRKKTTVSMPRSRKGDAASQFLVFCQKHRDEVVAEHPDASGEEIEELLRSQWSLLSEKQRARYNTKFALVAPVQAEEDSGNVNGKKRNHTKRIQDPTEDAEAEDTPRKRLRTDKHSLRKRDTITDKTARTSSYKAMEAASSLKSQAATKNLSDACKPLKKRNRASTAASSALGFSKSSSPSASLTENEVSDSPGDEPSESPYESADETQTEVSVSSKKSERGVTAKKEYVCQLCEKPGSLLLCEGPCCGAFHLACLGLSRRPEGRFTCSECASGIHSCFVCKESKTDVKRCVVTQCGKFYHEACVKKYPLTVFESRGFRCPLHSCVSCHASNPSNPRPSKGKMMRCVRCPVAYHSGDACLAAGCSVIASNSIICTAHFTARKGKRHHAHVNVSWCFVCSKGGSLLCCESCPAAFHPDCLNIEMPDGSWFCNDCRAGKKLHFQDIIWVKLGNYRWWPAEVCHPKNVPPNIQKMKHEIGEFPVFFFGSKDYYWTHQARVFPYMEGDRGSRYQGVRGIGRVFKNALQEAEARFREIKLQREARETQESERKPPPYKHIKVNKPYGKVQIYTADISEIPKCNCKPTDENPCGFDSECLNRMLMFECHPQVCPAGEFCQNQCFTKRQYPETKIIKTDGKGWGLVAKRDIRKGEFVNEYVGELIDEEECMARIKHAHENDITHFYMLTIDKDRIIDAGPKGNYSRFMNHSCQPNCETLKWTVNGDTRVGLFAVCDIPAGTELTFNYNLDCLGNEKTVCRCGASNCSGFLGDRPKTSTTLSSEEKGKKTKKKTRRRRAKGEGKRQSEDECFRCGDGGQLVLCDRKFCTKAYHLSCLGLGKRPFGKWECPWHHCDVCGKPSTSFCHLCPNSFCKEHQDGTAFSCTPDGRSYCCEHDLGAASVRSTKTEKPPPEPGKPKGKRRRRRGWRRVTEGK

IKZF3 [3] = target: T3, IKZF3 (Homo sapiens, UniProt Q96SW2+Q9UKT9); assay: Western blotting of IKZF3 protein level in CRBN KO 293FT cells; format: cell-based; conditions: 293FT cells with CRISPR-Cas9-mediated KO of CRBN, range of concentrations, 48 h
T3 sequence (Q9UKT9 whole entry): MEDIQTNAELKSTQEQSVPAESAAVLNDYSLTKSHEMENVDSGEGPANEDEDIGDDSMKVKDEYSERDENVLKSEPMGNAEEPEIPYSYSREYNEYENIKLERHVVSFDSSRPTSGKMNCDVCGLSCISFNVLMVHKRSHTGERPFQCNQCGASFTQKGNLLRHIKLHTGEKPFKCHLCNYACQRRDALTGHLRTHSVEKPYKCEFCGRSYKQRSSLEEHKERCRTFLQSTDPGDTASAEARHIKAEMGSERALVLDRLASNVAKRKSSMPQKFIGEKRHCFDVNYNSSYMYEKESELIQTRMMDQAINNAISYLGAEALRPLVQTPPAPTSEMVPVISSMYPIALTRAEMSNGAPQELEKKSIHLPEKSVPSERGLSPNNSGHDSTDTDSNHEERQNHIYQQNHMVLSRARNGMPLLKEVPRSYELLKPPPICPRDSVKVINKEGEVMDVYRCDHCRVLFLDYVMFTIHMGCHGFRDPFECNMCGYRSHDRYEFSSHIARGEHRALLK
T3 sequence (Q96SW2 whole entry): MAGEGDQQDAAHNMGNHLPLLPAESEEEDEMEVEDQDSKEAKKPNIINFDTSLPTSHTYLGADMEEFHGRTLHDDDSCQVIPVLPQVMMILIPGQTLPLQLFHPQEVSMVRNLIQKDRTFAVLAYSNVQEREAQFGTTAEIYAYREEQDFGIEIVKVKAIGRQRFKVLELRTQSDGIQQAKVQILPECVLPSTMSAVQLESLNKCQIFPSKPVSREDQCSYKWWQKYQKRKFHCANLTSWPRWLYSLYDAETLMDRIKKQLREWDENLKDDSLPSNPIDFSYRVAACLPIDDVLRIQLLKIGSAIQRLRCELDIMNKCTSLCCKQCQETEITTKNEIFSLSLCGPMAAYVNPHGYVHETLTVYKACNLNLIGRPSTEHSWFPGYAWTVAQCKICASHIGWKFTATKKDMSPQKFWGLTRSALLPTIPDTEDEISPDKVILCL
T3 sequence (Q16531 whole entry partner): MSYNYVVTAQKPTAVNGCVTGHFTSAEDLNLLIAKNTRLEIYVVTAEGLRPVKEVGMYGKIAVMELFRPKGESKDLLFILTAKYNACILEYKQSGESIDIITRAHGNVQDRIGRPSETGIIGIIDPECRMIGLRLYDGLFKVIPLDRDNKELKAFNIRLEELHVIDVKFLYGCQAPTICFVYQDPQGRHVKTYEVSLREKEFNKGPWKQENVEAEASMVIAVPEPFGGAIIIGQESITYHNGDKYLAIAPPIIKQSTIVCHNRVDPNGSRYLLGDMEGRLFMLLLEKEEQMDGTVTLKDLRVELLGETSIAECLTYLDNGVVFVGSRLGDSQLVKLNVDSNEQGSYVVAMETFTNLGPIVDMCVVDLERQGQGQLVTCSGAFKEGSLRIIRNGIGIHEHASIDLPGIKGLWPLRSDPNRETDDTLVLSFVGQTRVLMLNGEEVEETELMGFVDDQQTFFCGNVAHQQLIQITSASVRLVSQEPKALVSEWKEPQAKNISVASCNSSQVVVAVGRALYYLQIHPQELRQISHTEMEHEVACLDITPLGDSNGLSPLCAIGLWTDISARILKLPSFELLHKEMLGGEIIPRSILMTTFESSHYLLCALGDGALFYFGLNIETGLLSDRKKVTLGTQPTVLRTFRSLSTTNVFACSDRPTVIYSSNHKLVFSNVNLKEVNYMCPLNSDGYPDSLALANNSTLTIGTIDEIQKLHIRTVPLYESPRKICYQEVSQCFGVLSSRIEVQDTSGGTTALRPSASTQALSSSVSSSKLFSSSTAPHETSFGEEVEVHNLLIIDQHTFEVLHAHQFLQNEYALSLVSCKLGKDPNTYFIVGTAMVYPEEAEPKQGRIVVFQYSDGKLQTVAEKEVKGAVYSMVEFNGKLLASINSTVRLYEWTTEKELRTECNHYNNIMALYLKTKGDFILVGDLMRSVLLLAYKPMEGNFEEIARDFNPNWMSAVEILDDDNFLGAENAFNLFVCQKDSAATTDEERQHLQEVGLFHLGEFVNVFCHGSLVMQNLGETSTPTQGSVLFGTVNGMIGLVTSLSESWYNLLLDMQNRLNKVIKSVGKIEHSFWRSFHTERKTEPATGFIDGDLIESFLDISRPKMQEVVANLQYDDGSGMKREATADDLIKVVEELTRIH

GSPT1 [4] = assay: Western blotting of GSPT1 protein level in H929 cells; format: cell-based, Human; conditions: 2.5 μM, 72 h
H929 cells = assay: Cell growth inhibition assay in H929 cells; format: cell-based, Human; conditions: 2.5 μM, 8 days
IKZF3 [5] = target: T3, IKZF3; assay: Western blotting of IKZF3 protein level in KMS11 cells; format: cell-based; conditions: then 5 μM for 6 h
NSD2 [6] = target: T2, NSD2; assay: Western blotting of NSD2 protein level in H929 cells; format: cell-based; conditions: 2.5 μM, 72 h
NSD2 [7] = target: T2, NSD2; assay: Western blotting of NSD2 protein level in KMS11 cells; format: cell-based; conditions: 2.5 μM, 72 h
Mouse PK study = format: in vivo; conditions: single IP 50 mg/kg, male Swiss albino mice
IKZF1 [8] = target: T1, IKZF1; assay: Western blotting of IKZF1 protein level in KMS11 cells; format: cell-based; conditions: for IKZF1 degradation after pretreatment: then 5 μM for 6 h
IKZF3 [9] = target: T3, IKZF3; assay: Western blotting of IKZF3 protein level in 293FT cells; format: cell-based; conditions: for IKZF3 protein level after pretreatment: 293FT cells, then 5 μM for 6 h
[10] = tested on: 20 protein lysine and arginine methyltransferases including NSD1/2/3; assay: Selectivity assay, radioisotope-based filter binding; format: biochemical, human; conditions: 10 μM, in duplicate, SAM 1 μM
NSD2 [11] = target: T2, NSD2; assay: Western blotting of NSD2 protein level in 293FT cells; format: cell-based
GSPT1 [12] = assay: Western blotting of GSPT1 protein level in KMS11 cells; format: cell-based, Human; conditions: 2.5 μM, 72 h
[13] = pretreated with 10 nM MLN9708 for 2 h
[14] = pretreated with 0.5 μM MLN4924 for 2 h
[15] = WT 293FT cells, range of concentrations, 48 h

T1 sequence (Q13422 whole entry): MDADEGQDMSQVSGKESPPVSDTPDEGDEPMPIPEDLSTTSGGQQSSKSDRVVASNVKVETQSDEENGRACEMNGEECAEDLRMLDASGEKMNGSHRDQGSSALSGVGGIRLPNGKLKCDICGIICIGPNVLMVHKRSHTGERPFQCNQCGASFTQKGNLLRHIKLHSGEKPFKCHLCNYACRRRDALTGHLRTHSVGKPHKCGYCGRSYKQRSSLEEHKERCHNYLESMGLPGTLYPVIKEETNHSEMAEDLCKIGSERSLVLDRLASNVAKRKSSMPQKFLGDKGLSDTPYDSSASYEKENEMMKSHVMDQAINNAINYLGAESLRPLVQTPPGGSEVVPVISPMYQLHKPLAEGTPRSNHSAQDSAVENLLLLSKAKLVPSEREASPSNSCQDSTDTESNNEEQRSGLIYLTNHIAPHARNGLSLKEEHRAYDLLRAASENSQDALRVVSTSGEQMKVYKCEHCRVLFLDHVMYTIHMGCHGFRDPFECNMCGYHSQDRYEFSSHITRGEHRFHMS
T1 sequence (Q96SW2 whole entry): as the sequence (Q96SW2 whole entry) above
T1 sequence (Q16531 whole entry partner): as the sequence (Q16531 whole entry partner) above

O=C(CNc1cccc2c1C(=O)N(C1CCC(=O)NC1=O)C2=O)NCCCOc1ccc(NC(=O)c2ccc(CN(C(=O)c3ccc4c(c3)OCC(=O)N4)C3CC3)cc2)nc1 (stereo not shown) [Compound 9, N-Cyclopropyl-N-(4-((5-(3-(2-((2-(2,6-dioxopiperidin-3-yl)-1,3-dioxoisoindolin-4-yl)amino)acetamido)propoxy)pyridin-2-yl)-carbamoyl)benzyl)-3-oxo-3,4-dihydro-2H-benzo[b][1,4]oxazine-7-carboxamide]
Cell growth inhibition (KMS11 cells): effectively inhibited the growth
IKZF1 protein level (IKZF1 [1]): clearly reduced the IKZF1 protein level
NSD2 degradation (NSD2 [2]): no NSD2 or IKZF3 degradation was detected
IKZF3 degradation (IKZF3 [3]): no NSD2 or IKZF3 degradation was detected
GSPT1 degradation (GSPT1 [4]): did not degrade GSPT1
Cell growth inhibition (H929 cells): effectively inhibited the growth
IKZF3 degradation after pretreatment (IKZF3 [5]; [13]): at least partially rescued the IKZF1 and IKZF3 degradation
IKZF3 degradation after pretreatment (IKZF3 [5]; [14]): at least partially rescued the IKZF1 and IKZF3 degradation
NSD2 degradation (NSD2 [6]): effectively degraded NSD2
NSD2 degradation (NSD2 [7]): effectively degraded NSD2
clinical signs (Mouse PK study; PK study): no clinical signs were observed
tolerability (Mouse PK study; PK study): well tolerated
maximum plasma concentration (Mouse PK study; mean ± SD from three mice): 1.35 ± 0.08 µM
IKZF1 protein level (IKZF1 [8]; 2.5 μM, 72 h): clearly reduced the IKZF1 protein level
IKZF1 degradation after pretreatment (IKZF1 [8]; [13]): at least partially rescued the IKZF1 and IKZF3 degradation
IKZF1 degradation after pretreatment (IKZF1 [8]; [14]): at least partially rescued the IKZF1 and IKZF3 degradation
IKZF3 protein level after pretreatment (IKZF3 [9]; [13]): successfully restored the IKZF3 protein level
IKZF3 protein level after pretreatment (IKZF3 [9]; [14]): successfully restored the IKZF3 protein level
IKZF3 degradation (IKZF3 [9]; [15]): clear degradation of NSD2 and IKZF3 was observed
Inhibition of 20 methyltransferases (selectivity) [10]: did not inhibit any of the 20 methyltransferases
NSD2 protein level on cotreatment (NSD2 [11]; 293FT cells, 5 μM for 48 h, cotreated with 5 μM UNC6934 during the last 6 h): significantly rescued
NSD2 degradation, time course (NSD2 [11]; 293FT cells, 5 μM, 36 h): some NSD2 degradation
NSD2 degradation, time course (NSD2 [11]; 293FT cells, 5 μM, 48 h): significant degradation
NSD2 degradation, time course (NSD2 [11]; 293FT cells, 5 μM, 72 h): maximum degradation effect
NSD2 protein level after washout (NSD2 [11]; 293FT cells, 5 μM, then washout, 48 h post washout): fully recovered
NSD2 protein level (NSD2 [11]; 293FT cells, 2.5 and 10 μM, 48 h, Figure 2): effectively induced degradation of NSD2 at both 2.5 and 10 μM without a hook effect
NSD2 degradation (NSD2 [11]; [15]): clear degradation of NSD2 and IKZF3 was observed
GSPT1 degradation (GSPT1 [12]): did not degrade GSPT1
